Data published in patent publication US20080200531A1, “CDKI pathway inhibitors as inhibitors of tumor cell growth” (priority 2006, published 2008).

Experiments:
[1] = system: NFκB p50 and p65 subunits; test: TransAM NFκB p65 and p50 Chemi Transcription Factor Assay (oligonucleotide binding); type: cell-based; details: TNFα-induced or basal
Text: We also tested if these compounds could act as the inhibitors of NFκB, by measuring cellular levels of p50 or p65 subunits binding oligonucleotides containing NFκB consensus binding site, using ACTIVE MOTIF TransAM™ NFκB p65 Chemi and NFκB p50 Chemi Transcription Factor Assay Kits.

[2] = system: isogenic human fibroblast cell lines (untransformed, partially transformed, fully transformed); test: Dose-dependent growth inhibition of three isogenic human fibroblast cell lines with increasing neoplastic transformation; type: cell-based; details: 3-day assay, Hoechst 33342
Text: To determine if tumor-specific growth inhibitory activity of SNX9 class compounds could be due to the inhibition of a specific CDK, we took advantage of the availability of selective inhibitors for some of the CDK proteins. Among these enzymes, CDK1, CDK2 and CDK4/CDK6 (the latter two CDKs are closely related to each other and interact with the same class of cyclins), have been used as targets for developing specific inhibitors, with potential anticancer activity. In contrast, CDK3 has not been used as a target for developing selective inhibitors. We have obtained commercially available selective inhibitors of CDK1 (CGP74514A) (Calbiochem Cat. No. 217696), CDK2 (CVT-313) (Calbiochem Cat. No. 238803), and CDK4 (NSC 625987) (Calbiochem Cat. No. 219477), and tested them, along with a broad-specificity CDK inhibitor flavopiridol, and with SNX14, SNX9 and SNX9-1, for growth inhibition of normal and transformed fibroblasts.
This analysis was done using a set of three isogenic human fibroblast cell lines with increasing degrees of neoplastic transformation (immortal but untransformed, partially transformed, and fully transformed).

[3] = system: HMEC primary cultures, MCF-7 and MDA231; test: 3-day growth inhibition assay (Hoechst 33342), normal mammary epithelial cells vs breast carcinoma lines; details: 3-day assay; HMEC vs MCF-7 and MDA231
Description: (§1) The assays were carried out in 96-well plates, in triplicates; the plated cell numbers for each cell line were determined in preliminary experiments to assure exponential growth over the 3-day period of the assay. The cell numbers were measured by staining DNA of attached cells with Hoechst 33342, and the results for each dose were expressed as the decrease in cell number relative to untreated cells. For some of the tumor/normal cell line combinations, the assays were repeated using CellTiter-Glo viability assay (Promega), with the same results.

[4] = system: WI-38 and BJ-EN fibroblasts vs HT1080, HCT116, C33-A, Calu-6; test: 3-day growth inhibition assay (Hoechst 33342), normal fibroblasts vs tumor cell lines; details: 3-day assay, WI-38, BJ-EN vs HT1080, HCT116, C33-A
Description: as §1

[5] = system: p21-induced CMV-GFP expression (CDKI pathway); test: CMV-GFP reporter assay for p21-induced transcription (HTS) in HT1080 p21-9 derived reporter cell line; type: cell-based, human; details: libraries screened at 20 μM
Text: As described in a co-pending patent application PCT/US06/0 1046, we have developed a high-throughput screening (HTS) procedure for compounds inhibiting the CDKI pathway. This procedure utilizes a highly sensitive reporter cell line that was generated by infecting HT1080 p21-9 cells, a derivative of HT1080 fibrosarcoma cells that express p21 from a promoter induced by a physiologically neutral β-galactoside IPTG (isopropyl-β-thio-galactoside) with a lentiviral vector that expresses Green Fluorescent Protein (GFP) from the CDKI-inducible cytomegalovirus (CMV) promoter, followed by subcloning of GFP positive cells and monitoring the induction of GFP expression by IPTG. A cell line showing approximately 10-fold increase in GFP upon the addition of IPTG was used for HTS in a 96-well format.
This reporter line was used to screen two diversified small-molecule libraries developed by ChemBridge Corp., Microformat 04 and DiverSet, each comprising 50,000 compounds. These diversified libraries were rationally chosen by ChemBridge by quantifying pharmacophores in a collection of >500,000 drug-like molecules, using a version of Chem-X software to maximize the pharmacophore diversity. The Microformat 04 collection was designed to complement the chemical space covered by the older DiverSet library. ChemBridge libraries have been successfully used by numerous industrial and academic researchers, in a variety of cell-based and cell-free assays. The ChemBridge libraries were screened at 20 μM concentration, a conventional concentration for cell-based screening of these libraries. 62 of 100,000 ChemBridge compounds were identified by HTS and verified as inhibiting the induction of CMV-GFP expression in response to p21. This low hit rate (0.06%) indicates a high selectivity of our assay.
In this experiment, HT1080 p21-9 cells that express firefly luciferase from a CDKI-responsive promoter of cellular NK4 gene were cultured with IPTG for two days, which is sufficient for near-maximal induction of NK4 (Poole et al., supra).

[6] = system: HT1080-derived reporter cell line; test: Growth inhibition and cell death in HT1080-derived reporter cell line; type: cell-based, human; details: cell death detected microscopically by cell detachment
Text: The combination of p21 and SNX9-class compounds leads to both G1 and G2/M arrest, at the levels expected for the combined effects of p21 and SNX9 (FIG. 6).

| SMILES | selectivity of growth inhibition for transformed cell lines relative to immortal but untransformed fibroblasts [2] | tumor selectivity of growth inhibition, normal vs transformed mammary cells [3] | tumor selectivity of growth inhibition, tumor cells vs normal fibroblasts [4] | also measured |
| --- | --- | --- | --- | --- |
| Cc1ccc(S(=O)(=O)N[C@@H](Cc2ccccc2)C(=O)CCl)cc1 [TPCK, reference compound] | – | – | – | NFκB activity (p50 or p65 binding to NFκB consensus oligonucleotide) [1]: completely blocks NFκB activity |
| COc1ccc(CNc2nc(N(CCO)CCO)nc3c2ncn3C(C)C)cc1 [selective inhibitor of CDK2, CVT-313] | no transformed cell selectivity whatsoever | – | – | – |
| CC(=O)O[C@H]1C(=O)[C@@]2(C)[C@H]([C@H](OC(=O)c3ccccc3)[C@]3(O)C[C@H](OC(=O)[C@H](O)[C@@H](NC(=O)c4ccccc4)c4ccccc4)C(C)=C1C3(C)C)[C@]1(OC(C)=O)CO[C@@H]1C[C@@H]2O [taxol, paclitaxel] | – | clear tumor selectivity | inhibited all the tumor cells to a greater extent than normal fibroblasts | – |
| COc1ccc(OC)c2c(=S)c3ccccc3[nH]c12 [selective inhibitor of CDK4, NSC 625987] | no transformed cell selectivity whatsoever | – | – | – |
| CC[C@@]1(O)C(=O)OCc2c1cc1n(c2=O)Cc2cc3ccccc3nc2-1 [camptothecin] | – | no discrimination between normal and transformed mammary cells | showed no selectivity | – |
| COc1cccc2c1C(=O)c1c(O)c3c(c(O)c1C2=O)C[C@@](O)(C(=O)CO)C[C@@H]3O[C@H]1C[C@H](N)[C@H](O)[C@H](C)O1 [doxorubicin] | – | no discrimination between normal and transformed mammary cells | showed no selectivity | – |
| CCn1cnc2c(Nc3cccc(Cl)c3)nc(N[C@@H]3CCCC[C@@H]3N)nc21 [selective CDK1 inhibitor, CGP74514A] | Much lower selectivity for transformed cells | – | – | – |
| COc1cc(Cl)c2[nH]cc(CCN)c2c1 [Compound 4] | – | – | – | anti-CDKI pathway activity in the reporter assay (induction of CMV-GFP expression in response to p21) [5]: showed anti-CDKI pathway activity in the reporter assay; growth inhibition of the HT1080-derived reporter cell line [6]: associated with the induction of both cell death (as detected microscopically by cell detachment) and cell cycle arrest |
| CN1CC[C@H](c2c(O)cc(O)c3c(=O)cc(-c4ccccc4Cl)oc23)[C@H](O)C1 [flavopiridol] | no transformed cell selectivity whatsoever | – | – | – |
| NCCc1c[nH]c2ccc(Cl)cc12 [Compound 3] | – | – | – | anti-CDKI pathway activity in the reporter assay (induction of CMV-GFP expression in response to p21) [5]: showed anti-CDKI pathway activity in the reporter assay; growth inhibition of the HT1080-derived reporter cell line [6]: associated with the induction of both cell death (as detected microscopically by cell detachment) and cell cycle arrest |
